Consider 1 compound from patent publication US20220089663A1, “PROTEINS AND FLUOROPHORE-CONTAINING COMPOUNDS SELECTIVE FOR NaV1.7” (MEMORIAL SLOAN KETTERING CANCER CENTER, priority 2019, published 2022).

In one series the target is T1, hNav1.2 (Homo sapiens, UniProt Q99250).
T1 construct: host or cells: HEK293
Put plainly: automated whole-cell patch clamp (QPatch 16X), HEK293-hNav1.2. In kind it is cell-based. On the technique in general: The patch-clamp technique gives a direct electrical read-out from membranes.

In another series the target is T2, hNav1.7 (Homo sapiens, UniProt Q15858).
T2 construct: host or cells: HEK293
T2 sequence (Q15858 whole entry): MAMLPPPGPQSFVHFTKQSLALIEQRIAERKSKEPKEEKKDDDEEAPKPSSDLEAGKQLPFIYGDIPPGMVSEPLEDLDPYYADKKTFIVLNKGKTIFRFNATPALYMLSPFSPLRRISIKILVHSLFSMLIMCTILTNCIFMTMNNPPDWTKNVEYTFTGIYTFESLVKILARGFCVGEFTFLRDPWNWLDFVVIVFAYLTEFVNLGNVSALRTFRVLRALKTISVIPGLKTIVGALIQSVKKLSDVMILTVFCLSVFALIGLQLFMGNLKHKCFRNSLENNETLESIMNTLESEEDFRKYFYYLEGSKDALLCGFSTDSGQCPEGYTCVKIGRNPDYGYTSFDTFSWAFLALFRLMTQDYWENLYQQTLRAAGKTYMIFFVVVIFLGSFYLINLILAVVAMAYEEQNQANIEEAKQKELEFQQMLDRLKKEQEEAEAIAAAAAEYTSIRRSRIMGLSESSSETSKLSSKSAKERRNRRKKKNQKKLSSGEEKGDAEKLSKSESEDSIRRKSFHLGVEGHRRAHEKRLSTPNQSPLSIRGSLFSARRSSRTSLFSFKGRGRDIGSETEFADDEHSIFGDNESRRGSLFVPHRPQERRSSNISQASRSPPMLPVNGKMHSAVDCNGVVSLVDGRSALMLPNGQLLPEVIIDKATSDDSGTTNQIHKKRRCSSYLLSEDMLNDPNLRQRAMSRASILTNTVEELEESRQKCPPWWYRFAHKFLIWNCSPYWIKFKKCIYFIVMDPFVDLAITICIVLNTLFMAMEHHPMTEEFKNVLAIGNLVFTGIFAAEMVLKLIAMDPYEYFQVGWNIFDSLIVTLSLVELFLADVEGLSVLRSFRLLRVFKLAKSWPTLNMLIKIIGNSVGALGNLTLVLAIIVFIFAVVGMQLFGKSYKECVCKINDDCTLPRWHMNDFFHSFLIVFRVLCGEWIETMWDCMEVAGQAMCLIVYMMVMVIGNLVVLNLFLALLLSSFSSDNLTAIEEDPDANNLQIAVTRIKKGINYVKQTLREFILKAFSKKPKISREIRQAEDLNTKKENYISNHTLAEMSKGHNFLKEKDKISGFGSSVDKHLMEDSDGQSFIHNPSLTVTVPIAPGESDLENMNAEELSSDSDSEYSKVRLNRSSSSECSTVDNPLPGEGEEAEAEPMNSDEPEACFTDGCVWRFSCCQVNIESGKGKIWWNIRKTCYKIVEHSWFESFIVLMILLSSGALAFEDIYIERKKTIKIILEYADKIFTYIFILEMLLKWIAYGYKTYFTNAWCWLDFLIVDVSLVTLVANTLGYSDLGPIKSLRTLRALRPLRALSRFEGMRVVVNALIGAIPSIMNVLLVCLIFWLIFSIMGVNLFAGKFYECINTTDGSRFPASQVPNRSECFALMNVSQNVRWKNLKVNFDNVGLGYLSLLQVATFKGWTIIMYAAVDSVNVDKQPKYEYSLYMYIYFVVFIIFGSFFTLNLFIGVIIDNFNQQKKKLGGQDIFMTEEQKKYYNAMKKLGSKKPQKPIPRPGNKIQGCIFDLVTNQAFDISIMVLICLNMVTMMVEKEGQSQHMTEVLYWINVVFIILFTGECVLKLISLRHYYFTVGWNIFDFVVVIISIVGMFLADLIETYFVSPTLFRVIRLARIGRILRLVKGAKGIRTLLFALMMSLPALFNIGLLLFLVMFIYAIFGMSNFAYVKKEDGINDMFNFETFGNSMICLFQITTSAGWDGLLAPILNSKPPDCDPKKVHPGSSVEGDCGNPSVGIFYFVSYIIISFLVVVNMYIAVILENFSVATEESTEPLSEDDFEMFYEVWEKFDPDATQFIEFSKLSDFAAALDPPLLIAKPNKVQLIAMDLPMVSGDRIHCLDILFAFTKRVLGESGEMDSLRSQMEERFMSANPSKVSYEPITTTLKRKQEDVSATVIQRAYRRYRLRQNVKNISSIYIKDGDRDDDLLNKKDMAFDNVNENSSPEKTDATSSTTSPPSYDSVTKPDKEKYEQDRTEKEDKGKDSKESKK
T2 sequence (Q07699 19-218, further chain): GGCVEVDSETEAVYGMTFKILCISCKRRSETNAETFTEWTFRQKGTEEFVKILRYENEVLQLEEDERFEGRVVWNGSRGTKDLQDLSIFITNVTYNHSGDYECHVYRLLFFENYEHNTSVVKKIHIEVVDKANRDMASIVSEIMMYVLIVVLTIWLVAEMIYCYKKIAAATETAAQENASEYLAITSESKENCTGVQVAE
Put plainly: conventional whole cell patch clamp, kinetic studies on hNav1.7. In kind it is cell-based. The method, then:
Conventional patch clamp. Coverslips containing cells of HEK293 stable expressing hNav1.7 α and human β1 subunits were placed in a recording chamber on the stage of an inverted microscope with the extracellular solution containing 140 mM NaCl, 2 mM CaCl2, 4 mM KCl, 1 mM MgCl2, and 10 mM HEPES (pH 7.4 with NaOH). […] All recordings were made at room temperature (22-24° C.) using MultiClamp 700B amplifier, Axo™ Digidata® 1550B and PCLAMP software (Molecular Devices). Nav channel currents were measured using the whole cell configuration of the patch clamp technique. All peptides were dissolved in the extracellular solution with 0.1% BSA. The effects of peptides were tested by using the same voltage protocol as showing in the Qpatch technique. Concentration response data were analysed using nonlinear least-squares fit of the log (inhibitor) vs. response (three parameters) (GraphPad Prism 7) to provide pIC50 determinations. The conductance-voltage (G-V) relationships obtained by using a protocol in which cells depolarised from a holding potential of −120 mV, stepping from −80 to +60 mV in 5 mV increments. Steady-state inactivation was obtained by applying a depolarisation to 0 mV following a series step potential from −120 mV to 20 mV in 5 mV increments. The V0.5 activation and inactivation were calculated by fitting data with Boltzmann equation in GraphPad Prism 7. Recovery from fast inactivation was obtained by applying a first 0 mV pulse followed by repolarisation to −120 mV and a second pulse to 0 mV after a period ranging from 0 to 50 ms, increasing in 1 ms increments. The time constant was calculated by fitting data with one-phase decay in GraphPad Prism 7.

Series [1] is described as follows: acute in vivo toxicity after intravenous injection. Also on record: species or system mouse. The method, then: Acute in vivo toxicity. All animal experiments were performed in accordance with protocols approved by the Institutional Animal Care and Use Committee of MSK and followed the National Institute of Health guidelines for animal welfare. Six athymic nude mice 6-8 weeks old were purchased from Envigo RMS, Inc. An intravenous (IV) catheter was placed in tail vein of each mouse and they were anesthetized using Isoflurane (Novaplus, Telangana-India). Anesthesia was maintained using 1.0 to 1.5 L/min of Isoflurane and 2 L/min of oxygen. Three animals were injected with 68 μM, 7 nmol Hsp1a-FL in 100 μL of PBS, and the other three with […], of PBS. Animals were monitored using a rodent surgical monitor (Indus instruments, Houston, Tex.) before, during, and up to 16 minutes after injection. Numeric data points represent averaged values of 5±1 seconds duration. Data was collected before injection, 15 seconds after injection, 5 minutes after injection and 15 minutes after injection. Mouse body core temperature was measured by placing a rectal probe and electronically regulated via a surgical platform. The high-resolution electrocardiogram (EKG) was measured by placing non-invasive electrodes on the 4 paws and electrical contact was assured using a conducting gel (Electrode cream, Indus instruments, Houston, Tex.). Heart rate was automatically calculated from the R-R peaks derived from the EKG signal. Peripheral capillary oxygen saturation (SpO2) was non-invasively measured by placing a clip sensor on the animal's left thigh.
Statistical Analysis. Data were statistically analyzed by generalized estimating equations followed by LSD post hoc test when appropriate using SPSS 23.0. During animal toxicity studies, data points representing loss of signal were excluded from the analysis. Loss of signal was defined by a brief contact loss between the monitoring equipment and the mice (creating a “false” zero or −1 result). Loss of signal was corrected by placing the electrode in close contact to the mice. Average and standard deviations were calculated for each mouse.
Unless otherwise stated, data points represent mean values and error bars represent the standard deviation of biological replicates (mean±SEM). All p-values were calculated using a Student's unpaired t-test. Statistical significance was considered for p-values<0.05 and as follows: ns=not significant, *p<0.05, **p<0.01, ***p<0.001. Mann-Whitney tests were used for analysis of the unpaired samples (e.g. vital signs in mice injected with Hsp1a and mice from the control group) and the Wilcoxon test was used for analysis of paired samples (e.g. vital signs from same mouse before and after injection). Statistical significance was determined with alpha=0.05. Analysis and figures were prepared in GraphPad Prism 8.

For series [2] the following is noted: 10 μM, 37° C.
Where [3] appears, read: 60 nM, compared to vehicle, P<0.01.
The mark [4] stands for this setting: before, 15 seconds, 5 and 15 minutes after injection.

Each structure is given as a SMILES string.

T1 sequence (Q07699 19-218): as the sequence (Q07699 19-218, further chain) above
T1 sequence (Q99250 whole entry): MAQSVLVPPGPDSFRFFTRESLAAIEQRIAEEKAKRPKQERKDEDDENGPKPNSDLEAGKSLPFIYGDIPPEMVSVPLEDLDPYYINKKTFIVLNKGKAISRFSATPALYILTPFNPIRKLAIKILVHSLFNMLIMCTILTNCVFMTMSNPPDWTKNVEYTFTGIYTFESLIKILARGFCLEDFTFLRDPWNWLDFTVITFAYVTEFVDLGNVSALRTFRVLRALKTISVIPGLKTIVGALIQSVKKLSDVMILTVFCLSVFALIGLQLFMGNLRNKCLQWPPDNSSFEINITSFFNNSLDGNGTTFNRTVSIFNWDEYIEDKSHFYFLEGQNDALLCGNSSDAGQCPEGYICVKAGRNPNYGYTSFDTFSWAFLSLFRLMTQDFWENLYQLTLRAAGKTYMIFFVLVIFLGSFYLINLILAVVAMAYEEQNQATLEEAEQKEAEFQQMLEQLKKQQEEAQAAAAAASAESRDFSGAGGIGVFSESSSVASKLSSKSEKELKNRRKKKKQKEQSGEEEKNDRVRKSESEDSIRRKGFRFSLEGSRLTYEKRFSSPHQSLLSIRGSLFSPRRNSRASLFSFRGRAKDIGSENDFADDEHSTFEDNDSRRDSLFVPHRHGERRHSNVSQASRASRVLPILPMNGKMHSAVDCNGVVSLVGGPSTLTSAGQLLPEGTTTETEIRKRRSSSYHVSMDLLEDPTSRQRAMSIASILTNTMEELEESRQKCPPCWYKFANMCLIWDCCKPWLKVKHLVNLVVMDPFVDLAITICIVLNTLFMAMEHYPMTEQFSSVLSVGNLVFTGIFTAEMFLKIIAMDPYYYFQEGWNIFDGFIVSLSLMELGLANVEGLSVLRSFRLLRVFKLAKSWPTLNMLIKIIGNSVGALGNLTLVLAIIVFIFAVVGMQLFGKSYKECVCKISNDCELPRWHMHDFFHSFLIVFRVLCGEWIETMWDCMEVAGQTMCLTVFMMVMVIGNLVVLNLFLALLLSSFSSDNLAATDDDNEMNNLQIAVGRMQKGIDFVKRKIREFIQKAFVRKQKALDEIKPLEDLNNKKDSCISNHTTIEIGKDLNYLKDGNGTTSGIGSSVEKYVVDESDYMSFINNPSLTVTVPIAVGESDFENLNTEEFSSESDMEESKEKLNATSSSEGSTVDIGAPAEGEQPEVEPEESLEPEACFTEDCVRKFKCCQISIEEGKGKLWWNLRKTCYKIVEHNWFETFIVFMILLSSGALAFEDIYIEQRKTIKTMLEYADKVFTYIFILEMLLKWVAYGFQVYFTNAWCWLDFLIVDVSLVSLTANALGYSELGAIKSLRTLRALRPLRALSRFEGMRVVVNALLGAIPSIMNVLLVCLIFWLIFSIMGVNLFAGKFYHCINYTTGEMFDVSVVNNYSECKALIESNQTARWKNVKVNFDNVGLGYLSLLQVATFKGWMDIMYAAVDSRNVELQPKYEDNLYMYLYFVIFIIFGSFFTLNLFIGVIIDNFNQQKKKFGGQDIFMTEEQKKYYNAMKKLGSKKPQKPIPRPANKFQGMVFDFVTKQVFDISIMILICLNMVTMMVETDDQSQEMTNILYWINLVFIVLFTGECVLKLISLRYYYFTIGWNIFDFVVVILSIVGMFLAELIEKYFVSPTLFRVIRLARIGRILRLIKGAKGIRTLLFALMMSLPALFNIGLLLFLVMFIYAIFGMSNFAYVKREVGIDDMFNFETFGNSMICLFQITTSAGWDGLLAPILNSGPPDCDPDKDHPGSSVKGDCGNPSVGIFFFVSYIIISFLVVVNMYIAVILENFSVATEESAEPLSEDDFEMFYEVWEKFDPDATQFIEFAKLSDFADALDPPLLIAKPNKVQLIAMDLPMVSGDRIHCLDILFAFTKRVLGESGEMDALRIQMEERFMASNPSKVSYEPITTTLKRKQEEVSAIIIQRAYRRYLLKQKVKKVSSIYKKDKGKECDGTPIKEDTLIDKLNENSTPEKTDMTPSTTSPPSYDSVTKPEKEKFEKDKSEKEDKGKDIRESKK

Take `CC[C@H](C)[C@H](NC(=O)[C@H](CCCCN)NC(=O)[C@@H]1CSSC[C@@H]2NC(=O)[C@@H]3CCCN3C(=O)[C@H](CCCNC(=N)N)NC(=O)[C@H](CCC(=O)O)NC(=O)[C@H](CO)NC(=O)[C@H](CC(=O)O)NC(=O)[C@@H]3CSSC[C@H](NC(=O)[C@H](C(C)C)NC(=O)[C@H](CC(C)C)NC(=O)CNC(=O)[C@H](CCC(=O)O)NC(=O)[C@H](CSSC[C@H](NC(=O)[C@@H](N)Cc4ccc(O)cc4)C(=O)N[C@@H](CCC(N)=O)C(=O)N[C@@H](CCCCN)C(=O)N[C@@H](Cc4ccccc4)C(=O)N[C@@H](CC(C)C)C(=O)N[C@@H](Cc4c[nH]c5ccccc45)C(=O)N[C@@H]([C@@H](C)O)C(=O)N3)NC2=O)C(=O)N[C@@H](CCCNC(=N)N)C(=O)N[C@@H](CC(C)C)C(=O)N[C@@H](Cc2c[nH]c3ccccc23)C(=O)N1)C(=O)N[C@@H](CC(N)=O)C(N)=O` [sHsp1a]: the hNav1.2 currents blocked on hNav1.2 (at 200 nM) was 30%. Also, the inhibition at 2 µM at hNav1.2 (at 2 μM, read-out: max. current inhibition hNav1.2) came out at 60%. Besides, the IC50 at hNav1.2 (mean±S.E.M, read-out: pIC50 on hNav1.2 (converted)) was 302 nM. In addition, on hNav1.7 (setting [3]), the “V0.5 inactivation Δ” value was −11.62 mV and the “Δτ, recovery from fast inactivation” value came out at 1 ms. At hNav1.7 (after application of 200 nM for 4 min), the “time for currents to recover following washout in peptide-free solution” value was about 10 min. Moreover, the “time constant τ of recovery from fast inactivation” value on hNav1.7 (in presence of 60 nM, n=5, mean±SEM) is 5.03 ± 0.43 ms. In series [1] (setting [4]), the “effect on heart muscle (heart rate)” value was “no effect” and the “effect on the respiratory musculature (oxygen saturation in peripheral blood)” value is “no effect”. In addition, in series [1] (mouse, in vivo), the “effect on mouse body temperature” value was “no effect”. Moreover, in series [2], the “amount in human serum after 24 hours” value is reported as “remained constant”.

In general, inhibition refers to the share of the control response that was lost under treatment.
